Measurements reported in patent US20250230193A1, “CYCLIC COMPOUND HAVING SELECTIVE KRAS INHIBITORY EFFECT ON HRAS AND NRAS” (CHUGAI SEIYAKU KABUSHIKI KAISHA, priority 2022, published 2025).

Columns and labels:
[1] = biological target: GDP-bound HRAS wild-type protein (Homo sapiens, UniProt P01112); test: Binding to HRAS by surface plasmon resonance (SPR), Single Cycle Kinetics; conditions: SPR; for HRAS/KRAS (ratio of KD value for GDP-bound HRAS wild-type protein to KD value for KRAS): KD ratio class; for HRAS/KRAS (ratio of KD value with respect to HRAS to KD value with respect to KRAS): GDP-bound HRAS wild-type vs GDP-bound KRAS wild-type
[2] = system: human lung cancer strain NCI-H441; test: cells; conditions: NCI-H441, 96 h, read-out: NCI-H441 IC50 (nM)
[3] = biological target: GDP-bound NRAS wild-type protein (Homo sapiens, UniProt P01111); test: Binding to NRAS by surface plasmon resonance (SPR), Single Cycle Kinetics; conditions: SPR; for NRAS/KRAS (ratio of KD value for GDP-bound NRAS wild-type protein to KD value for KRAS): KD ratio class; for NRAS/KRAS (ratio of KD value with respect to NRAS to KD value with respect to KRAS): GDP-bound NRAS wild-type vs GDP-bound KRAS wild-type
GDP-bound NRAS wild-type protein, sequence (P01111 whole entry): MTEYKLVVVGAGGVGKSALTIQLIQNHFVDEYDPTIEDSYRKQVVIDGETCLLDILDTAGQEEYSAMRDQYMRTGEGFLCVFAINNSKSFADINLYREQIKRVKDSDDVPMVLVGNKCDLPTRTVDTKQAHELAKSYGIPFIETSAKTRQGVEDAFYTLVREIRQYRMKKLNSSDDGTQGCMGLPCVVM

GDP-bound HRAS wild-type protein, sequence (P01112 whole entry): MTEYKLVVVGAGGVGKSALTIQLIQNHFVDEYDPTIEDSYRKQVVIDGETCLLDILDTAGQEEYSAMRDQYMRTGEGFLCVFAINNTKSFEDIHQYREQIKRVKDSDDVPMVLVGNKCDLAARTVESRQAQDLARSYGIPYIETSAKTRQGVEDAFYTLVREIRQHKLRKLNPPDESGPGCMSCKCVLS

SMILES | IC50 [2] [nM] | HRAS/KRAS (ratio of KD value for GDP-bound HRAS wild-type protein to KD value for KRAS) [1] | NRAS/KRAS (ratio of KD value for GDP-bound NRAS wild-type protein to KD value for KRAS) [3] | HRAS/KRAS (ratio of KD value with respect to HRAS to KD value with respect to KRAS) ([1]; KD ratio) | NRAS/KRAS (ratio of KD value with respect to NRAS to KD value with respect to KRAS) ([3]; KD ratio) | HRAS/KRAS (ratio of KD value with respect to HRAS to KD value with respect to KRAS) [1] | NRAS/KRAS (ratio of KD value with respect to NRAS to KD value with respect to KRAS) [3]
CCO[C@@H]1C[C@H]2C(=O)NC3(CCC3)C(=O)N(C)[C@@H](C3CCCC3)C(=O)N(C)[C@H](C(=O)N3CCOCC3)CC(=O)N(C)[C@@H](CC)C(=O)N[C@@H]([C@@H](C)CC)C(=O)N3CC[C@H]3C(=O)N(C)[C@H]3CC[C@@H](C)CN(C3=O)[C@@H](Cc3ccc(C(F)(F)F)cc3)C(=O)N(C)CC(=O)N[C@@H](CCc3cc(F)c(C(F)(F)F)c(F)c3)C(=O)N2C1 [PP1369] | 13.4 | B (a compound having 3 or more and less than 10 is denoted as B) | B (a compound having 3 or more and less than 10 is denoted as B) |  |  |  | 
CCO[C@@H]1C[C@H]2C(=O)NC3(CCC3)C(=O)N(C)[C@@H](C3CCCC3)C(=O)N(C)[C@H](C(=O)N(C)C)CC(=O)N(C)[C@@H](CC3CC3)C(=O)N[C@@H]([C@@H](C)CC)C(=O)N(C)CC(=O)N(C)[C@H]3C/C=C\CCN(C3=O)[C@@H](Cc3ccc(C(F)(F)F)cc3)C(=O)N(C)CC(=O)N[C@@H](CCc3ccc4sccc4c3)C(=O)N2C1 [PP1260] | 60.4 | A (a compound having 10 or more and less than 20 is denoted as A) | A (a compound having 10 or more and less than 20 is denoted as A) |  |  |  | 
CC[C@H](C)[C@@H]1NC(=O)[C@H](CC2CCCC2)N(C)C(=O)C[C@@H](C(=O)N(C)C)N(C)C(=O)[C@H](C2CCCC2)N(C)C(=O)C2(CCC2)NC(=O)[C@@H]2C[C@@H](C(F)(F)F)CN2C(=O)[C@H](CCc2cc(F)c(C(F)(F)F)c(F)c2)NC(=O)CN(C)C(=O)[C@H](Cc2ccc(F)cc2)N2CC/C=C\C[C@@H](C2=O)N(C)C(=O)CN(C)C1=O [PP1508] | 28.1 | A (a compound having 10 or more and less than 20 is denoted as A) | A (a compound having 10 or more and less than 20 is denoted as A) |  |  |  | 
CCO[C@@H]1C[C@H]2C(=O)NC3(CCC3)C(=O)N(C)[C@@H](C(CC)CC)C(=O)N(C)[C@H](C(=O)N(C)C)CC(=O)N(C)[C@@H](CC3CC3)C(=O)N[C@@H]([C@@H](C)CC)C(=O)N(C)CC(=O)N(C)[C@H]3C/C=C\CCN(C3=O)[C@@H](Cc3ccc(C(F)(F)F)cc3)C(=O)N(C)CC(=O)N[C@@H](CCc3ccc4sccc4c3)C(=O)N2C1 [PP1227] | 128 | A (a compound having 10 or more and less than 20 is denoted as A) | A (a compound having 10 or more and less than 20 is denoted as A) |  |  |  | 
CCO[C@@H]1C[C@H]2C(=O)NC3(CCC3)C(=O)N(C)[C@@H](C3CCCC3)C(=O)N(C)[C@H](C(=O)N3CCCC3)CC(=O)N(C)[C@@H](CC3CC3)C(=O)N[C@@H]([C@@H](C)CC)C(=O)N(C)CC(=O)N(C)[C@H]3C/C=C\CCN(C3=O)[C@@H](Cc3ccc(C)cc3)C(=O)N(C)CC(=O)N[C@@H](CCc3cc(F)c(C(F)(F)F)c(F)c3)C(=O)N2C1 [PP1409] | 43.5 | A (a compound having 10 or more and less than 20 is denoted as A) | A (a compound having 10 or more and less than 20 is denoted as A) |  |  |  | 
CCO[C@@H]1C[C@H]2C(=O)NC3(CCC3)C(=O)N(C)[C@@H](C3CCCC3)C(=O)N(C)[C@H](C(=O)N(C)C)CC(=O)N(C)[C@@H](CC3CCCC3)C(=O)N[C@@H]([C@@H](C)CC)C(=O)N(C)CC(=O)N(C)[C@H]3C/C=C\CCN(C3=O)[C@@H](Cc3ccc(C(F)(F)F)cc3)C(=O)N(C)CC(=O)N[C@@H](CCc3ccc(Cl)c(Cl)c3)C(=O)N2C1 [PP1254] | 28.3 | A (a compound having 10 or more and less than 20 is denoted as A) | AA (a compound having 20 or more is denoted as AA) |  |  |  | 
CCO[C@@H]1C[C@H]2C(=O)NC3(CCC3)C(=O)N(C)[C@@H](C3CCCC3)C(=O)N(C)[C@H](C(=O)N(C)C)CC(=O)N(C)[C@@H](CC3CC3)C(=O)N[C@@H]([C@@H](C)CC)C(=O)N(C)CC(=O)N(C)[C@H]3C/C=C\CCN(C3=O)[C@@H](Cc3ccc(C)cc3)C(=O)N(C)CC(=O)N[C@@H](CCc3cc(F)c(Cl)c(F)c3)C(=O)N2C1 [PP1484] | 59.3 | A (a compound having 10 or more and less than 20 is denoted as A) | A (a compound having 10 or more and less than 20 is denoted as A) |  |  |  | 
CC[C@H](C)[C@@H]1NC(=O)[C@H](CC)N(C)C(=O)C[C@@H](C(=O)N2CCOCC2)N(C)C(=O)[C@H](C2CCCC2)N(C)C(=O)C2(CCC2)NC(=O)[C@@H]2CCCN2C(=O)[C@H](CCc2ccc(C(F)(F)F)c(Cl)c2)NC(=O)CN(C)C(=O)[C@H](Cc2ccc(C(F)(F)F)cc2)N2C[C@H](C)CC[C@@H](C2=O)N(C)C(=O)CN(C)C1=O [PP1338] | 35 | B (a compound having 3 or more and less than 10 is denoted as B) | B (a compound having 3 or more and less than 10 is denoted as B) |  |  |  | 
CCO[C@@H]1C[C@H]2C(=O)NC3(CCCC3)C(=O)N(C)[C@@H](C(CC)CC)C(=O)N(C)[C@H](C(=O)N3CCCC3)CC(=O)N(C)[C@@H](COC)C(=O)N[C@@H]([C@@H](C)CC)C(=O)N(C)CC(=O)N(C)[C@H]3C/C=C\CCN(C3=O)[C@@H](CC3CCC(F)(F)CC3)C(=O)N(C)CC(=O)N[C@@H](CCc3cc(F)c(C(F)(F)F)c(F)c3)C(=O)N2C1 [PP1441] | 87.6 | A (a compound having 10 or more and less than 20 is denoted as A) | A (a compound having 10 or more and less than 20 is denoted as A) |  |  |  | 
CC[C@H](C)[C@@H]1NC(=O)[C@H](COC)N(C)C(=O)C[C@@H](C(=O)N2CCOCC2)N(C)C(=O)[C@H](C2CCCC2)N(C)C(=O)C2(CCC2)NC(=O)[C@@H]2CC(F)(F)CN2C(=O)[C@H](CCc2cc(F)c(C(F)(F)F)c(F)c2)NC(=O)CN(C)C(=O)[C@H](Cc2ccc(C(F)(F)F)cc2)N2CCCCC[C@@H](C2=O)N(C)C(=O)[C@@H]2CCN2C1=O [PP0866] |  |  |  | B (a compound having 3 or more and less than 10 is denoted as B) | B (a compound having 3 or more and less than 10 is denoted as B) |  | 
C#CCN1CC(=O)N(C)[C@H]2C/C=C\CCN(C2=O)[C@@H](Cc2ccc(C(F)(F)F)cc2)C(=O)N(C)CC(=O)N[C@@H](CCc2ccc(C(F)(F)F)c(OC)c2)C(=O)N2C[C@H](OCC)C[C@H]2C(=O)NC2(CC(C)(C)C2)C(=O)N(C)[C@@H](C2CCCC2)C(=O)N(C)[C@H](C(=O)N(C)C)CC(=O)N(C)[C@@H](CCC)C(=O)N[C@@H]([C@@H](C)CC)C1=O [PP2107] |  |  |  |  |  | A (a compound having 10 or more and less than 20 is denoted as A) | A (a compound having 10 or more and less than 20 is denoted as A)

More lines, main results first:

IC50 [2] [nM] | SMILES | HRAS/KRAS (ratio of KD value for GDP-bound HRAS wild-type protein to KD value for KRAS) [1] | NRAS/KRAS (ratio of KD value for GDP-bound NRAS wild-type protein to KD value for KRAS) [3] | HRAS/KRAS (ratio of KD value with respect to HRAS to KD value with respect to KRAS) ([1]; KD ratio) | NRAS/KRAS (ratio of KD value with respect to NRAS to KD value with respect to KRAS) ([3]; KD ratio) | HRAS/KRAS (ratio of KD value with respect to HRAS to KD value with respect to KRAS) [1] | NRAS/KRAS (ratio of KD value with respect to NRAS to KD value with respect to KRAS) [3]
132 | CCO[C@@H]1C[C@H]2C(=O)NC3(CCC3)C(=O)N(C)[C@@H](C(CC)CC)C(=O)N(C)[C@H](C)CC(=O)N(C)[C@@H](CC(C)C)C(=O)N[C@@H]([C@@H](C)CC)C(=O)N(C)CC(=O)N(C)[C@H]3C/C=C\CCN(C3=O)[C@@H](Cc3ccc(F)cc3)C(=O)N(C)CC(=O)N[C@@H](CCc3cc(F)c(C(F)(F)F)c(F)c3)C(=O)N2C1 [PP1525] | A (a compound having 10 or more and less than 20 is denoted as A) | A (a compound having 10 or more and less than 20 is denoted as A) |  |  |  | 
2.2 | CCO[C@@H]1C[C@H]2C(=O)NC3(CC(C)(C)C3)C(=O)N(C)[C@@H](C3CCCC3)C(=O)N(C)[C@H](C(=O)N(C)C)CC(=O)N(C)[C@@H](CC3CC3)C(=O)N[C@@H]([C@@H](C)CC)C(=O)N(C)CC(=O)N(C)[C@H]3C/C=C\CCN(C3=O)[C@@H](Cc3ccc(C(F)(F)F)cc3)C(=O)N(C)CC(=O)N[C@@H](CCc3cc(F)c(C(F)(F)F)c(F)c3)C(=O)N2C1 [PP1568] | A (a compound having 10 or more and less than 20 is denoted as A) | A (a compound having 10 or more and less than 20 is denoted as A) |  |  |  | 
3.6 | CCCOC[C@H]1C(=O)N[C@@H]([C@@H](C)CC)C(=O)N(C)CC(=O)N(C)[C@H]2C/C=C\CCN(C2=O)[C@@H](Cc2ccc(C(F)(F)F)cc2)C(=O)N(C)CC(=O)N[C@@H](CCc2cc(F)c(C(F)(F)F)c(F)c2)C(=O)N2C[C@H](OCC)C[C@H]2C(=O)NC2(CC(C)(C)C2)C(=O)N(C)[C@@H](C2CCCC2)C(=O)N(C)[C@H](C(=O)N(C)CC)CC(=O)N1C [PP1572] | A (a compound having 10 or more and less than 20 is denoted as A) | A (a compound having 10 or more and less than 20 is denoted as A) |  |  |  | 
320 | CCO[C@@H]1C[C@H]2C(=O)NC3(CCC3)C(=O)N(C)[C@@H](C(CC)CC)C(=O)N(C)[C@H](C)CC(=O)N(C)[C@@H](CC3CCCC3)C(=O)N[C@@H]([C@@H](C)CC)C(=O)N(C)CC(=O)N(C)[C@H]3C/C=C\CCN(C3=O)[C@@H](Cc3ccc(F)cc3)C(=O)N(C)CC(=O)N[C@@H](CCc3cc(F)c(C(F)(F)F)c(F)c3)C(=O)N2C1 [PP1523] |  |  |  |  |  | 
39.3 | CCO[C@@H]1C[C@H]2C(=O)NC3(CCC3)C(=O)N(C)[C@@H](C(CC)CC)C(=O)N3CCC[C@@H]3CC(=O)N(C)[C@@H](CC)C(=O)N[C@@H]([C@@H](C)CC)C(=O)N(C)CC(=O)N(C)[C@H]3C/C=C\CCN(C3=O)[C@@H](Cc3ccc(C(F)(F)F)cc3)C(=O)N(C)CC(=O)N[C@@H](CCc3cc(F)c(C(F)(F)F)c(F)c3)C(=O)N2C1 [PP1607] | A (a compound having 10 or more and less than 20 is denoted as A) |  |  |  |  | 
